Laboratory results published in article PMC9853847 (2023).

Tests used:
Test in all cases: FRET titration (MLCT donor to Cy5.5-labeled DNA), dose-response fit
[1] = test system: 20-mer duplex (DNA, duplex) TGAGGATGTGTAGGTTGATG/CATCAACCTACACATCCTCA; details: 200 mM NaCl; 5 mM Tris, pH 7.5; 1 μM DNA
[2] = test system: G-quadruplex (G4) (DNA, G4) AGGGTTAGGGTTAGGGTTAGGG; details: 100 mM KCl, 10 mM Tris.HCl, pH 7.4, 1 μM DNA
[3] = test system: 3WJ (three-way junction) (DNA, junction) TGAGGATGTGTAGGTTGATG/CATCAACCTAAGAATGAGAC/GTCTCATTCTCACATCCTCA; details: 200 mM NaCl, 5 mM Tris, pH 7.5, 1 μM DNA
[4] = test system: matched duplex (27-mer) (DNA, duplex) GACCAGCTTATCACCCCTAGATACCAT/ATGGTATCTAGGGGTGATAAGCTGGTC; details: 200 mM NaCl; 5 mM Tris, pH 7.5; 1 μM DNA
[5] = test system: mismatch 1 duplex (27-mer, CC mismatch at 4 bp) (DNA, mismatch bulge abasic) GACCAGCTTATCACCCCTAGATACCAT/ATGGTATCTAGGGGTGATAAGCTCGTC; details: 200 mM NaCl; 5 mM Tris, pH 7.5; 1 μM DNA
[6] = test system: mismatch 2 duplex (27-mer, CC mismatch at 14 bp) (DNA, mismatch bulge abasic) GACCAGCTTATCACCCCTAGATACCAT/ATGGTATCTAGGGCTGATAAGCTGGTC; details: 200 mM NaCl; 5 mM Tris, pH 7.5; 1 μM DNA
[7] = test system: mismatch 3 duplex (27-mer, CC mismatch at 24 bp) (DNA, mismatch bulge abasic) GACCAGCTTATCACCCCTAGATACCAT/ATGCTATCTAGGGGTGATAAGCTGGTC; details: 200 mM NaCl; 5 mM Tris, pH 7.5; 1 μM DNA
[8] = not saturated, tested up to 20 μM

Kd [1] | Kd [2] | Kd [3] | Kd [4] | Kd [5] | Kd [6] | Kd [7] | Kd [2, 8] | Kd ([3]; tested up to 20 μM) | SMILES
2.3 ± 0.5 µM | 3.8 ± 1.7 µM | 4.4 ± 0.7 µM | 4.7 ± 0.1 µM | 4.6 ± 0.6 µM | 4.3 ± 0.6 µM | 5.1 ± 0.3 µM | – | – | Cc1ccc(-c2ccc(C)cn2)nc1.Cc1ccc(-c2ccc(C)cn2)nc1.[Ru+2].c1ccc2nc3c4cccnc4c4ncccc4c3nc2c1
6.3 ± 0.3 µM | – | – | 8.1 ± 1.7 µM | 6.4 ± 1.7 µM | 8.3 ± 3.0 µM | 8.1 ± 3.7 µM | > 20 µM | > 20 µM | Cc1ccc(-c2ccc(C)cn2)nc1.[Ru+2].c1ccc2nc3c4cccnc4c4ncccc4c3nc2c1.c1ccc2nc3c4cccnc4c4ncccc4c3nc2c1
2.6 ± 1.0 µM | – | 6.4 ± 0.3 µM | 7.9 ± 2.5 µM | 7.3 ± 2.5 µM | > 20 µM | 7.6 ± 1.9 µM | > 20 µM | – | Cc1ccc(-c2ccc(C)cn2)nc1.[Ru+2].c1ccc(-c2nc3c4cccnc4c4ncccc4c3[nH]2)cc1.c1ccc(-c2nc3c4cccnc4c4ncccc4c3[nH]2)cc1
2.8 ± 0.9 µM | 3.9 ± 1.3 µM | 4.3 ± 0.9 µM | 5.1 ± 0.4 µM | 5.0 ± 0.7 µM | 5.3 ± 0.6 µM | 6.5 ± 1.8 µM | – | – | [Ru+2].c1ccc(-c2ccccn2)nc1.c1ccc(-c2ccccn2)nc1.c1ccc2nc3c4cccnc4c4ncccc4c3nc2c1
